Data on three compounds can be found in patent publication US20230124862A1, “BISMUTH THIOL COMPOUNDS AND COMPOSITIONS AND METHODS OF TREATING MICROBIAL CO-INFECTIONS” (Microbion Corporation, priority 2020, published 2023).

In experiment [1] the test system is N. gonorrhoeae. Conditions: N. gonorrhoeae MMX 683 (ATCC 49226); cited from earlier work.
The subject of experiment [2] is E. coli ATCC 25922. Nature of the experiment: Broth microdilution MIC (Example 16). (Broth dilution looks for growth in wells or tubes with falling amounts of substance.)
In experiment [3] the test system is RNA synthesis in E. coli MMX 121 (K12 tolC mutant). Format: cell-based, Escherichia coli. Conditions: 8X the MIC.
Experiment [4] deals with RNA synthesis in E. coli ATCC 25922. Format: cell-based, Escherichia coli. Conditions: 8X the MIC.
The subject of experiment [5] is lipid synthesis in E. coli ATCC 25922. Nature of the experiment: Macromolecular synthesis assay: lipid synthesis ([3H] glycerol). To be noted: control drug, concentration not given. Format: cell-based, Escherichia coli. On the procedure:
Chloroform (125 μL) was then added to each reaction and vortexed, followed by the addition of 125 μl dH2O and vortexing. Reactions were centrifuged at 13,000 rpm in a microfuge for 10 min, and then 150 μl of the organic phase was transferred to a scintillation vial and allowed to dry in a fume hood for at least 1 hr.

Structures are written as SMILES. Converted amounts (≈) assume the structure as drawn. Like-named read-outs stand apart in the source and are kept apart here.

On to `CO/N=C(\C(=O)N[C@@H]1C(=O)N2C(C(=O)O)=C(CSc3nc(=O)c(=O)[nH]n3C)CS[C@H]12)c1csc(N)n1` [Ceftriaxone], for which, in experiment [1], the “CLSI QC range of MIC” value was “(0.004-0.015) μg/mL”.

In the case of `CO[C@H]1/C=C/O[C@@]2(C)Oc3c(C)c(O)c4c(O)c(c(/C=N/N5CCN(C)CC5)c(O)c4c3C2=O)NC(=O)/C(C)=C\C=C\[C@H](C)[C@H](O)[C@@H](C)[C@@H](O)[C@@H](C)[C@H](OC(C)=O)[C@@H]1C` [rifampicin], the MIC in experiment [2] (Escherichia coli, ATCC25922) stood at 8 µg/mL (≈ 9.72 µM); in experiment [2] (Escherichia coli, ATCC25922, E. coli ATCC 25922, inoculum 1), 8 µg/mL (≈ 9.72 µM); in experiment [2] (Escherichia coli, ATCC25922, E. coli ATCC 25922, inoculum 2), 8 µg/mL (≈ 9.72 µM). Moreover, the “inhibition of RNA synthesis” value in experiment [3] worked out at 91.9%; in experiment [4] (initial assay), 88.5%; in experiment [4] (repeat assay) it was 89.4%.

In the case of `Oc1cc(Cl)ccc1Oc1ccc(Cl)cc1Cl` [irgasan], the MIC was determined as 0.12 µg/mL (≈ 0.414 µM) in experiment [2] (E. coli ATCC 25922, inoculum 1); 0.12 µg/mL (≈ 0.414 µM) in experiment [2] (E. coli ATCC 25922, inoculum 2); 0.12 µg/mL (≈ 0.414 µM) in experiment [2] (E. coli ATCC 25922, inoculum 3). Further, the “inhibition of lipid synthesis” value in experiment [5] came to 63.1%.

The MIC is the lowest concentration found to suppress growth. A low value points to greater potency.
